The values below come from ChEMBL document CHEMBL4811252, “Identification of novel 1,3-diaryl-1,2,4-triazole-capped histone deacetylase 6 inhibitors with potential anti-gastric cancer activity” (Eur J Med Chem, 2021).

Broadly, the inhibition is the change of the read-out against control, counted positive when it falls. In general, IC50 refers to the concentration needed to halve the response being measured.

Test [1] concerns the target T1, Histone deacetylase 1 (Homo sapiens, UniProt Q13547). To be noted: dose 100.0 nM, time 40.0 min.
Test [2] deals with T2, Protein deacetylase HDAC6 (Homo sapiens) (UniProt Q9UBN7).
T2 sequence (whole entry): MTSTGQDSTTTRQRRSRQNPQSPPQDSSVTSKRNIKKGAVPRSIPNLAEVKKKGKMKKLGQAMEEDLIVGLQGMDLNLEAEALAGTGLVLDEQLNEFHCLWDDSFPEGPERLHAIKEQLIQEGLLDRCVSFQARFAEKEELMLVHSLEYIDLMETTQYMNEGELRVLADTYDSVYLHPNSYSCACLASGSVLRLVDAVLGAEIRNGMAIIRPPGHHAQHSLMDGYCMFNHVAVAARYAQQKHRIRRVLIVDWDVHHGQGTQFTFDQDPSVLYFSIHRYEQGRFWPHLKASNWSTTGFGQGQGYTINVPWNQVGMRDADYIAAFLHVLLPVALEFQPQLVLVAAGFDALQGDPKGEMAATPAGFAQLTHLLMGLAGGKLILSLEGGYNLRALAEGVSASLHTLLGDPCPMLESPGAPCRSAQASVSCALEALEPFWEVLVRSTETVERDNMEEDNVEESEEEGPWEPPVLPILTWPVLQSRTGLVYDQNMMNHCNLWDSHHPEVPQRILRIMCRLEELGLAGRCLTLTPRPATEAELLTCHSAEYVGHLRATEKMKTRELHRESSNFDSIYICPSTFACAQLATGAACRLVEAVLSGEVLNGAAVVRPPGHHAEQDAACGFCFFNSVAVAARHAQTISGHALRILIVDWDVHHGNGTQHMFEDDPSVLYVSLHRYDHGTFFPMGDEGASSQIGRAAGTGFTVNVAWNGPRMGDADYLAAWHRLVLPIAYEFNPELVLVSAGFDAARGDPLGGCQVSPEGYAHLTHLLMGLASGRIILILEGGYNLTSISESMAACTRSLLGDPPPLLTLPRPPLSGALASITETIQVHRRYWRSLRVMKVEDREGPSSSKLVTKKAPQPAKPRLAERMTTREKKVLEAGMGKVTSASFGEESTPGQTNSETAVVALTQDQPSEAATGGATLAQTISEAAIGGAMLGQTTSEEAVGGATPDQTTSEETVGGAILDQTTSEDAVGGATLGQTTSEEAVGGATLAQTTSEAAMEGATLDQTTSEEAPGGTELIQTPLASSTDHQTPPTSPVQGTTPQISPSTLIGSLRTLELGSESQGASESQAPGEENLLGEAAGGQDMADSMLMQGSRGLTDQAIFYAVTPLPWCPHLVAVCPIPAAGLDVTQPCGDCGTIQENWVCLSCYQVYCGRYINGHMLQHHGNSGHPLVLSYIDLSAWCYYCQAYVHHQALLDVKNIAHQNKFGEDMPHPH
Conditions: Sf9, dose 100.0 nM, time 40.0 min.

In another test the test system is MGC-803. Description: Antiproliferative activity against human MGC803 cells incubated for 72 hrs by MTT assay. In kind it is functional, cell-based. To be noted: MGC-803, 72 h. A general note: Formazan colour is commonly taken as a measure of viable cells.
For test [3], the target named is T3, Protein deacetylase HDAC6 (Homo sapiens, UniProt Q9UBN7).
T3 sequence (Q9UBN7 whole entry): T2 sequence (whole entry)
Description: Inhibition of recombinant full length human HDAC6 expressed in baculovirus infected Sf9 cells using Z-(Ac)-Lys-AMC as substrate incubated for 40 mins by fluorescence based assay.

Test [4] concerns the target T1, Histone deacetylase 1. The experiment in a line: Inhibition of recombinant human HDAC1 using Z-(Ac)-Lys-AMC as substrate incubated for 40 mins by fluorescence based assay.

T1 sequence (Q13547 whole entry): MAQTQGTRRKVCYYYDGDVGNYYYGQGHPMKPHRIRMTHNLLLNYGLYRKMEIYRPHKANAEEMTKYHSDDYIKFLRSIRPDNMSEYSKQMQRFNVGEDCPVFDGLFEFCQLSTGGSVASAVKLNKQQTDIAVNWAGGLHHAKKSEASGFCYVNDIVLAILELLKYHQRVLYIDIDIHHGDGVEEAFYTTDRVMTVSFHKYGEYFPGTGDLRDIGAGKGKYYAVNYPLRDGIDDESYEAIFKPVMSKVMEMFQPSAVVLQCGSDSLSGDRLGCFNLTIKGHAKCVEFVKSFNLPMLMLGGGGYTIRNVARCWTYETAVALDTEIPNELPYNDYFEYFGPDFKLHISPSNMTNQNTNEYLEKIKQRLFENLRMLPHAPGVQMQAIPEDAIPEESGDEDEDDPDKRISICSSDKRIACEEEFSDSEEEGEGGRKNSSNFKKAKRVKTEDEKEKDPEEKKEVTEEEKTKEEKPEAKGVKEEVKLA

As to `O=C(NO)c1ccc(NCc2nc(-c3ccccc3)nn2-c2ccc(C(F)(F)F)cc2)cc1`, the inhibition against Histone deacetylase 1 [1] was found to be 12.8%; in test [2], 38.9%.
For the molecule `O=C(NO)c1ccc(NCc2nc(-c3ccncc3)nn2-c2ccccc2)cc1`, the inhibition against Histone deacetylase 1 [1] turned out to be 7.5%; in test [2], 30.8%.
Take `O=C(NO)c1ccc(NCc2nc(-c3cccnc3)nn2-c2ccccc2)cc1`: the figures for the inhibition (at Histone deacetylase 1 [1]; in test [2]) were 12.9% and 57.7%, respectively.
Regarding `O=C(NO)c1ccc(NCc2nc(-c3ccsc3)nn2-c2ccccc2)cc1`, the inhibition turned out to be 15.2% on Histone deacetylase 1 [1] and 53.4% in test [2].
As for `COc1ccc(-n2nc(-c3ccccc3)nc2CNc2ccc(C(=O)NO)cc2)cc1`, the inhibition at Histone deacetylase 1 [1] turned out to be 26.2%; in test [2] it was 63.4%. Further, the IC50 in the test on MGC-803 is 7050 nM; in test [3], 127 nM; at Histone deacetylase 1 [4], 883 nM.
With `O=C(NO)c1ccc(NCc2nc(-c3ccc(Br)o3)nn2-c2ccccc2)cc1`, the inhibition on Histone deacetylase 1 [1] stood at 13.8%; in test [2] it was 55.8%.
The matching figures for `CCc1ccc(-n2nc(-c3ccccc3)nc2CNc2ccc(C(=O)NO)cc2)cc1`: 10.8% and 38.3%.
As for `Cc1ccsc1-c1nc(CNc2ccc(C(=O)NO)cc2)n(-c2ccccc2)n1`, the inhibition came out at 26.3% at Histone deacetylase 1 [1] and 72.1% in test [2]. The 50% inhibitory concentration (IC50) in the test on MGC-803 turned out to be 8890 nM; in test [3] it was 30.7 nM; at Histone deacetylase 1 [4] it was 3200 nM.
Regarding `Cc1ccc(-n2nc(-c3ccccc3)nc2CNc2ccc(C(=O)NO)cc2)cc1C`, the inhibition stood at 11% at Histone deacetylase 1 [1] and 53% in test [2].
On to `Nc1ccccc1NC(=O)c1ccc(NCc2nc(-c3ccccc3)nn2-c2ccccc2)cc1`, for which the inhibition at Histone deacetylase 1 [1] is 32%; in test [2] it was 5%.
Turning to `O=C(NO)c1ccc(NCc2nc(-c3ccc(Cl)c(Cl)c3)nn2-c2ccccc2)cc1`, the inhibition at Histone deacetylase 1 [1] turned out to be 7.6%; in test [2], 34.5%.
As for `CNC(=O)c1ccc(NCc2nc(-c3ccccc3)nn2-c2ccccc2)cc1`, the inhibition at Histone deacetylase 1 [1] was -0.55%; in test [2], -3.6%.
Take `COc1ccc(-n2nc(-c3ccc(O)cc3)nc2CNc2ccc(C(=O)NO)cc2)cc1`: the figures for the inhibition (at Histone deacetylase 1 [1]; in test [2]) were 25.9% and 70.3%, respectively. Besides, the IC50 in the test with MGC-803 is above 20000 nM; in test [3], 102 nM; on Histone deacetylase 1 [4] it was 4300 nM.
On to `O=C(NO)c1ccc(NCc2nc(-c3ccc(F)cc3)nn2-c2ccccc2)cc1`, for which the inhibition against Histone deacetylase 1 [1] was 20.8%; in test [2] it was 70.9%. The IC50 is 8960 nM in the test on MGC-803, 114 nM in test [3] and 3400 nM on Histone deacetylase 1 [4].
On to `CCc1ccc(-c2nc(CNc3ccc(C(=O)NO)cc3)n(-c3ccccc3)n2)cc1`, for which the inhibition against Histone deacetylase 1 [1] was 13.2%; in test [2], 54.6%.
Take `O=C(NO)c1ccc(NCc2nc(-c3ccccc3)nn2-c2ccc(Br)cc2)cc1`: the inhibition is 18.2% against Histone deacetylase 1 [1] and 65.9% in test [2]. Moreover, the IC50 in the test on MGC-803 amounted to 9300 nM; in test [3], 1730 nM; at Histone deacetylase 1 [4], 3200 nM.
With `O=C(NO)c1ccc(NCc2nc(-c3cccc(Cl)c3)nn2-c2ccccc2)cc1`, the inhibition on Histone deacetylase 1 [1] is 17%; in test [2] it was 61.2%. The IC50 in the test with MGC-803 amounted to 5760 nM; in test [3], 115 nM; on Histone deacetylase 1 [4], 1870 nM.
`Cc1ccc(-c2nc(CNc3ccc(C(=O)NO)cc3)n(-c3ccccc3)n2)o1`: the inhibition was 22.3% at Histone deacetylase 1 [1] and 60.7% in test [2].
As for `Cc1cc(C)cc(-n2nc(-c3ccccc3)nc2CNc2ccc(C(=O)NO)cc2)c1`, the inhibition on Histone deacetylase 1 [1] was 12.4%; in test [2], 49.8%.
On to `O=C(NO)c1ccc(NCc2nc(-c3ccc(Cl)cc3)nn2-c2ccccc2)cc1`, for which the inhibition amounted to 19.5% against Histone deacetylase 1 [1] and 67.2% in test [2]. For the same molecule, the results for the concentration for half-maximal inhibition (IC50) (in the test with MGC-803; in test [3]; on Histone deacetylase 1 [4]) were 5970 nM, 181 nM and 2420 nM, respectively.
Take `Cc1cccc(-c2nc(CNc3ccc(C(=O)NO)cc3)n(-c3ccccc3)n2)c1`: the inhibition at Histone deacetylase 1 [1] stood at 13%; in test [2] it was 64.1%. The half-maximal inhibitory concentration (IC50) with MGC-803 worked out at 8710 nM; in test [3], 281 nM; on Histone deacetylase 1 [4], 5520 nM.
As to `COc1ccc(-c2nc(CNc3ccc(C(=O)NO)cc3)n(-c3ccccc3)n2)cc1`, the inhibition was determined as 33.4% on Histone deacetylase 1 [1] and 77.6% in test [2]. In addition, the IC50 was above 20000 nM with MGC-803, 163 nM in test [3] and 2860 nM on Histone deacetylase 1 [4].
For the molecule `O=C(NO)c1ccc(NCc2nc(-c3ccccc3)nn2-c2ccccc2)cc1`, the inhibition came to 19% against Histone deacetylase 1 [1] and 72.6% in test [2]. For the same molecule, the IC50 with MGC-803 was found to be 17700 nM; in test [3] it was 112 nM; at Histone deacetylase 1 [4] it was 2490 nM.
With `O=C(NO)c1ccc(NCc2nc(-c3ccccc3)nn2-c2ccc(Cl)cc2)cc1`, the values for the inhibition (against Histone deacetylase 1 [1]; in test [2]) were 18% and 55.4%, respectively.
Consider `O=C(NO)c1ccc(NCc2nc(-c3cccs3)nn2-c2ccc(O)cc2)cc1`, for which the inhibition on Histone deacetylase 1 [1] amounted to 38.4%; in test [2] it was 79.6%. For the same molecule, the IC50 in the test with MGC-803 was above 20000 nM; in test [3] it was 33.5 nM; at Histone deacetylase 1 [4], 1500 nM.
Turning to `O=C(NO)c1ccc(NCc2nc(-c3cccc4cnccc34)nn2-c2ccccc2)cc1`, the inhibition is 11.2% on Histone deacetylase 1 [1] and 40.2% in test [2].
As to `CC(C)c1ccc(-n2nc(-c3ccccc3)nc2CNc2ccc(C(=O)NO)cc2)cc1`, the values for the inhibition (against Histone deacetylase 1 [1]; in test [2]) were 17.3% and 52.6%, respectively.
Take `O=C(NO)c1ccc(NCc2nc(-c3ccco3)nn2-c2ccccc2)cc1`: the inhibition on Histone deacetylase 1 [1] came out at 16.7%; in test [2], 59.9%.
In the case of `Cc1ccc(-n2nc(-c3ccccc3)nc2CNc2ccc(C(=O)NO)cc2)cc1`, the inhibition at Histone deacetylase 1 [1] is 24.6%; in test [2], 60.7%. For the same molecule, the concentration for half-maximal inhibition (IC50) in test [3] was determined as 310 nM; at Histone deacetylase 1 [4] it was 1720 nM.
With `Cc1ccccc1-c1nc(CNc2ccc(C(=O)NO)cc2)n(-c2ccccc2)n1`, the inhibition is 16.5% against Histone deacetylase 1 [1] and 53.2% in test [2].
For the molecule `Cc1ccccc1-n1nc(-c2ccccc2)nc1CNc1ccc(C(=O)NO)cc1`, the values for the inhibition (against Histone deacetylase 1 [1]; in test [2]) were 17% and 57.1%, respectively.
For `O=C(NO)c1ccc(NCc2nc(-c3ccc(C(F)(F)F)cc3)nn2-c2ccccc2)cc1`, the inhibition worked out at 4.9% on Histone deacetylase 1 [1] and 41.6% in test [2].
Consider `O=C(NO)c1ccc(NCc2nc(-c3ccccc3Cl)nn2-c2ccccc2)cc1`, for which the inhibition was determined as 15.6% against Histone deacetylase 1 [1] and 75% in test [2]. Besides, the half-maximal inhibitory concentration (IC50) with MGC-803 is above 20000 nM; in test [3], 185 nM; at Histone deacetylase 1 [4], 3830 nM.
With `NNC(=O)c1ccc(NCc2nc(-c3ccccc3)nn2-c2ccccc2)cc1`, the figures for the inhibition (against Histone deacetylase 1 [1]; in test [2]) were 4.1% and 10%, respectively.
Turning to `O=C(NO)c1ccc(NCc2nc(-c3cc4ccccc4s3)nn2-c2ccccc2)cc1`, the figures for the inhibition (on Histone deacetylase 1 [1]; in test [2]) were 26% and 65.5%, respectively. Moreover, the IC50 in the test with MGC-803 worked out at 6110 nM; in test [3], 324 nM; at Histone deacetylase 1 [4], 1460 nM.
For the molecule `NC(=O)c1ccc(NCc2nc(-c3ccccc3)nn2-c2ccccc2)cc1`, the inhibition on Histone deacetylase 1 [1] is -2.6%; in test [2], -4.4%.
As to `O=C(NO)c1ccc(NCc2nc(-c3ccc(Cl)s3)nn2-c2ccccc2)cc1`, the inhibition against Histone deacetylase 1 [1] came to 8.3%; in test [2], 39.8%.
Take `CC(C)c1ccc(-c2nc(CNc3ccc(C(=O)NO)cc3)n(-c3ccccc3)n2)cc1`: the inhibition on Histone deacetylase 1 [1] came to 4.3%; in test [2], 27.6%.
Consider `O=C(O)c1ccc(NCc2nc(-c3ccccc3)nn2-c2ccccc2)cc1`, for which the inhibition was 2.1% against Histone deacetylase 1 [1] and -0.4% in test [2].
The matching figures for `O=C(NO)c1ccc(NCc2nc(-c3ccccn3)nn2-c2ccccc2)cc1`: 16% and 58.6%.
In the case of `O=C(NO)c1ccc(NCc2nc(-c3ccc(Br)cc3)nn2-c2ccccc2)cc1`, the inhibition against Histone deacetylase 1 [1] was found to be 13.2%; in test [2], 54.7%.
